Molecular target: T1, lecithin:cholesterol acyltransferase (LCAT) (Oryctolagus cuniculus, UniProt P53761)
T1 construct: endogenous LCAT activity is reduced to about 18% that of normal; from tissue; host or cells: plasma of PI- or PC-injected rabbits
T1 sequence (P53761 25-440): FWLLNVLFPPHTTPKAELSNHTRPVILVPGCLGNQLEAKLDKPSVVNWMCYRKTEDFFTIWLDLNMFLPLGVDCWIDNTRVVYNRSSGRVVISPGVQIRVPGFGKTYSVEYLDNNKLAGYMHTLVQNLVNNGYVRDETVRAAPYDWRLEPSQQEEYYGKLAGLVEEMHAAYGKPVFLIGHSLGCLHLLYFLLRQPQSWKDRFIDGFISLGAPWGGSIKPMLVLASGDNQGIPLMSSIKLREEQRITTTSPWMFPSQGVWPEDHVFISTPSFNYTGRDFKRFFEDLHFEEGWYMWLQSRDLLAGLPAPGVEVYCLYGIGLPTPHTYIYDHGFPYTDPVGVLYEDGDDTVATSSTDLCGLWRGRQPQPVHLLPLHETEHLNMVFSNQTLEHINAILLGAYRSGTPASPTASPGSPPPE
Assay: Plasma cholesterol esterification by LCAT after injection of PC or PI
Format: in vivo, rabbit
Experimental: Male New Zealand white rabbits (3.5-4.0 kg) are fasted for 12 hours prior to injection and remain fasted until after data for the final time point is taken. Rabbits have free access to water during this time. A catheter is inserted into the marginal ear vein and blood samples are collected into tubes containing 7.5% (K3) EDTA solution at the desired time points. A pre-injection blood sample is taken and the vesicle solution of either PI (n=4), or PC (n=2) or saline (n=1) is injected into the marginal ear vein. A sample of blood is removed at 10, 30 min, 1, 3, 6 and 24 h after the injection. All blood samples are placed on ice and then centrifuged at 3000 rpm for 15 min at 4° C. to separate the plasma. In order to ensure that lecithin:cholesterol acyl transferase (LCAT) is inhibited in the stored plasma, iodoacetamide (150 mM) is added to plasma samples as taught by Guerin et al. (1994). The effect of PI on LCAT activity is examined using plasma samples that are not treated with iodoacetamide. 400 μL aliquots of plasma for each time point are incubated for 30 min with 10 μCi of [^3H]-FC on filter paper discs (Dobiasova et al., 1991) at 37° C. and the reaction is terminated with the addition of 2 mL ethanol. Reaction products are extracted in hexane and the amount of [^3H] associated with CE and FC is determined by thin layer chromatography. […] However, endogenous LCAT activity is reduced to about 18% that of normal (PC injected control) after about 10 min post injection of PI. Also, PI injection reduces the fractional rate of cholesterol esterification from about 45% to about 8%, of initial values, per hour. […] To investigate the effect of PI on the production and transport of CE in the plasma, the amount of radioactive CE was measured at each time point (data not shown). […] Rather it appears that PI may modify intravascular cholesterol levels by mobilizing a cellular cholesterol pool.

endogenous LCAT activity, of normal (PC injected control) (about 10 min post injection): about 18%
LCAT activity returned to, of normal (after a period of time following vesicle injection): about 75%
effect on LCAT activity / cholesteryl esterification (after injection of vesicles): almost completely inhibits
less [3H]-CE in plasma than in the control (initial time points, vs PC injected rabbit): 85%
fractional rate of cholesterol esterification (of initial values, per hour, reduced from about 45%): about 8%
Structure (SMILES): CCCCCCCC/C=C\CCCCCCCC(=O)O[C@H](COC(=O)CCCCCCCCCCCCCCC)COP(=O)(O)O[C@@H]1[C@H](O)[C@H](O)[C@@H](O)[C@H](O)[C@H]1O [PI, 1-palmitoyl-2-oleoyl phosphatidylinositol]

Reference: US7390783B2, “Charged phospholipid compositions and methods for their use” (Ottawa Heart Institute Research Corporation, priority 2000, dated 2008)
